The values below come from patent publication US20200095296A1, “USE OF PEPTIDES AS BIOMARKERS IN THE DIAGNOSIS, CONFIRMATION AND TREATMENT OF A NEUROLOGICAL DISORDER AND TCR AND/OR HLA IMMUNOPROFILING IN NEURODEGENERATIVE DISEASE” (THE TRUSTEES OF COLUMBIA UNIVERSITY IN THE CITY OF NEW YORK, priority 2017, published 2020).

Where no end group is shown, it is not given here. [ ]: non-standard residue; d: D form. pT = C[C@@H](OP(=O)(O)O)[C@H](N)C(=O)O; pS = N[C@@H](COP(=O)(O)O)C(=O)O

The subject of the test is PBMC. In words: IFNg/IL-5 dual ELISPOT after 14 day in vitro stimulation of PBMC with Tau peptides. It is filed as cell-based, human. The settings on record: for PD % of Total Responders / PD Total SFC / PD Total Responders: PD donors; for % of total response / Average SFC per responder / Frequency of response / Total SFC per epitope: across all cohorts; for Total Responders / Total SFC: all three cohorts (PD, HC > 50, HC < 35); for HC < 35 Total Responders / HC < 35 Total SFC: healthy controls < 35 years old. From the text: It was investigated whether T cell responses against Tau were detectable in the PD and healthy control (HC) donors. To this end, a panel of overlapping peptides spanning through the entire sequence of the Tau protein was synthesized. Since it is known that the Tau protein is post-translationally modified (mainly by phosphorylation), in several instances phosphorylated peptides were also synthesized. In all, 55 non-modified 16-mers overlapping by 8 and 14 modified 16-mers were synthesized.
PD: n=16, peptides tested 14-16 times; HC above 50 years old denominated as age-matched: n=11 (9-11 times) and HC below 35 years old (HC Young): n=13 (10-13 times).
These peptides were tested utilizing the following assay strategy. Briefly, PBMC from each donor were stimulated in vitro for 14 days as described (Hinz, D., 2015) with pools of 10 to 16 peptides each. After 14 days, the T cell cultures were assayed with IFNg/IL-5 dual ELISPOT assays […]. Positive pools were deconvoluted at day 17 to identify the specific individual epitopes recognized.

Where [1] appears, read: healthy controls > 50 years old.

Regarding “ADGKTKIATPRGAAPP (listed as Homo sapiens) [Tau 16-mer, start 145]”, the “PD/HC > 50 Ratio of % Responders” value came to 1.0, the “PD/HC > 50 Ratio of Response” value came out at 0.5, the “HC > 50 % of Total Responders” value came out at 50.0% and the “PD % of Total Responders” value came out at 50.0%. The “% of total response” value is 1.5%, the “Average SFC per responder” value came to 868 SFC, the Frequency of response was found to be 11.3 and the “Total SFC per epitope” value is listed as 5210 SFC. Also, under “HC > 50, dominant epitopes”, the “HC > 50 Total SFC” value is recorded as 3577 SFC. For the same sequence, the “PD Total SFC” value (dominant epitopes) amounted to 1633 SFC.

Regarding “ATLADEVSASLAKQGL (listed as Homo sapiens) [Tau 16-mer, start 426]”, the “PD/HC > 50 Ratio of % Responders” value was found to be 1.5, the “PD/HC > 50 Ratio of Response” value turned out to be 0.8, the “HC > 50 % of Total Responders” value worked out at 40.0% and the “PD % of Total Responders” value turned out to be 60.0%. For the same sequence, the “% of total response” value is recorded as 1.4%, the “Average SFC per responder” value was 999 SFC, the Frequency of response is recorded as 9.4 and the “Total SFC per epitope” value was determined as 4997 SFC. The “HC > 50 Total SFC” value (HC > 50, dominant epitopes) was found to be 2803 SFC. The “PD Total SFC” value (dominant epitopes) is reported as 2193 SFC.

As for “DFKDRVQSKIGSLDNI (DFKDRVQSKIG[pS]LDNI; listed as Homo sapiens) [Tau 16-mer, start 345]”, the “PD/HC > 50 Ratio of % Responders” value turned out to be 0.7, the “PD/HC > 50 Ratio of Response” value is on record as 0.6, the “HC > 50 % of Total Responders” value stood at 60.0% and the “PD % of Total Responders” value turned out to be 40.0%. The “PD Total Responders” value amounted to 2, the “PD Total SFC” value came to 2397 SFC, the “% of total response” value was 1.9% and the “Average SFC per responder” value came out at 1345 SFC. Also, the Frequency of response was determined as 9.4, the “Total SFC per epitope” value is recorded as 6727 SFC, the “Total Responders” value is 5 and the “Total SFC” value turned out to be 6727 SFC. Moreover, the “HC < 35 Total Responders” value worked out at 0 and the “HC < 35 Total SFC” value turned out to be 0 SFC. Moreover, the “HC > 50 Total SFC” value (HC > 50, dominant epitopes) was 4330 SFC. The “PD Total SFC” value (dominant epitopes) amounted to 2397 SFC. Under setting [1], the “HC > 50 Total Responders” value came to 3 and the “HC > 50 Total SFC” value is reported as 4330 SFC.

Regarding DFKDRVQSKIGZLDNI, the “PD/HC > 50 Ratio of % Responders” value is recorded as 2.0, the “PD/HC > 50 Ratio of Response” value was 3.7, the “HC > 50 % of Total Responders” value was found to be 28.6% and the “PD % of Total Responders” value was determined as 57.1%. In addition, the “PD Total Responders” value was determined as 4, the “PD Total SFC” value was 4490 SFC, the “% of total response” value came to 1.9% and the “Average SFC per responder” value was determined as 972 SFC. Further, the Frequency of response stood at 13.2, the “Total SFC per epitope” value was determined as 6807 SFC, the “Total Responders” value turned out to be 7 and the “Total SFC” value is 6807 SFC. The “HC < 35 Total Responders” value was 1 and the “HC < 35 Total SFC” value stood at 1097 SFC. The “HC > 50 Total SFC” value (HC > 50, dominant epitopes) was determined as 1220 SFC. For the same sequence, the “PD Total SFC” value (dominant epitopes) stood at 4490 SFC. Besides, under setting [1], the “HC > 50 Total Responders” value was determined as 2 and the “HC > 50 Total SFC” value was found to be 1220 SFC.

As to “DRSGYSSPGSPGTPGS (DRSGYSSPG[pS]PG[pT]PGS; listed as Homo sapiens) [Tau 16-mer, start 193]”, the “PD Total Responders” value came to 1, the “PD Total SFC” value was found to be 1175 SFC, the “Total Responders” value turned out to be 2 and the “Total SFC” value came out at 1332 SFC. For the same sequence, the “HC < 35 Total Responders” value stood at 0 and the “HC < 35 Total SFC” value is 0 SFC. For the same sequence, under setting [1], the “HC > 50 Total Responders” value worked out at 1 and the “HC > 50 Total SFC” value came out at 157 SFC.

As for DRSGYSSPGZPGXPGS, the “PD/HC > 50 Ratio of % Responders” value was 5.0, the “PD/HC > 50 Ratio of Response” value stood at 7.3, the “HC > 50 % of Total Responders” value is recorded as 11.1% and the “PD % of Total Responders” value stood at 55.6%. In addition, the “PD Total Responders” value was 5, the “PD Total SFC” value turned out to be 1360 SFC, the “% of total response” value was 1.6% and the “Average SFC per responder” value was 611 SFC. In addition, the Frequency of response is recorded as 17.0, the “Total SFC per epitope” value was determined as 5499 SFC, the “Total Responders” value worked out at 9 and the “Total SFC” value was determined as 5499 SFC. Further, the “HC < 35 Total Responders” value was found to be 3 and the “HC < 35 Total SFC” value was 3952 SFC. Moreover, the “HC > 50 Total SFC” value (HC > 50, dominant epitopes) came out at 187 SFC. In addition, the “PD Total SFC” value (dominant epitopes) was 1360 SFC. Further, under setting [1], the “HC > 50 Total Responders” value came to 1 and the “HC > 50 Total SFC” value is given as 187 SFC.

On to “GDTSPRHLSNVSSTGS (listed as Homo sapiens) [Tau 16-mer, start 401]”, for which the “PD/HC > 50 Ratio of % Responders” value is given as 0.3, the “PD/HC > 50 Ratio of Response” value is reported as 0.6, the “HC > 50 % of Total Responders” value stood at 50.0% and the “PD % of Total Responders” value is 16.7%. Besides, the “% of total response” value is on record as 1.1%, the “Average SFC per responder” value is 633 SFC, the Frequency of response is given as 11.3 and the “Total SFC per epitope” value is given as 3798 SFC. Besides, under “HC > 50, dominant epitopes”, the “HC > 50 Total SFC” value is 1657 SFC. The “PD Total SFC” value (dominant epitopes) is on record as 997 SFC.

Consider “GKVQIINKKLDLSNVQ (listed as Homo sapiens) [Tau 16-mer, start 273]”, for which the “PD/HC > 50 Ratio of % Responders” value is reported as 2.5, the “PD/HC > 50 Ratio of Response” value worked out at 3.3, the “HC > 50 % of Total Responders” value turned out to be 20.0% and the “PD % of Total Responders” value came to 50.0%. The “% of total response” value is 8.6%, the “Average SFC per responder” value worked out at 1511 SFC, the Frequency of response is 37.7 and the “Total SFC per epitope” value was determined as 30211 SFC. The “HC > 50 Total SFC” value (HC > 50, dominant epitopes) is recorded as 5560 SFC. Further, the “PD Total SFC” value (dominant epitopes) is given as 18290 SFC.

In the case of “GQKGQANATRIPAKTP (listed as Homo sapiens) [Tau 16-mer, start 161]”, the “PD/HC > 50 Ratio of % Responders” value was 4.0, the “PD/HC > 50 Ratio of Response” value was found to be 3.5, the “HC > 50 % of Total Responders” value is given as 16.7% and the “PD % of Total Responders” value worked out at 66.7%. Also, the “% of total response” value was 2.3%, the “Average SFC per responder” value is 1361 SFC, the Frequency of response was determined as 11.3 and the “Total SFC per epitope” value is on record as 8164 SFC. Besides, the “HC > 50 Total SFC” value (HC > 50, dominant epitopes) stood at 1770 SFC. Further, where the note is “dominant epitopes”, the “PD Total SFC” value turned out to be 6247 SFC.

As to “HVTQARMVSKSKDGTG (listed as Homo sapiens)”, the “PD/HC > 50 Ratio of % Responders” value turned out to be 5.0, the “PD/HC > 50 Ratio of Response” value worked out at 66.9, the “HC > 50 % of Total Responders” value is on record as 10.0% and the “PD % of Total Responders” value was 50.0%. For the same sequence, the “% of total response” value was found to be 4.2%, the “Average SFC per responder” value is 1468 SFC, the Frequency of response amounted to 18.9 and the “Total SFC per epitope” value is on record as 14677 SFC. For the same sequence, the “HC > 50 Total SFC” value (HC > 50, dominant epitopes) is 133 SFC. Further, the “PD Total SFC” value (dominant epitopes) was 8916 SFC.

Regarding “IDMVDSPQLATLADEV (listed as Homo sapiens) [Tau 16-mer, start 417]”, the “PD Total Responders” value was 1, the “PD Total SFC” value was 173 SFC, the “Total Responders” value stood at 1 and the “Total SFC” value is reported as 173 SFC. Further, the “HC < 35 Total Responders” value worked out at 0 and the “HC < 35 Total SFC” value worked out at 0 SFC. Further, under setting [1], the “HC > 50 Total Responders” value is 0 and the “HC > 50 Total SFC” value is reported as 0 SFC.

As for IDMVDZPQLATLADEV, the “PD Total Responders” value worked out at 1, the “PD Total SFC” value turned out to be 197 SFC, the “Total Responders” value stood at 5 and the “Total SFC” value was determined as 1703 SFC. In addition, the “HC < 35 Total Responders” value is 2 and the “HC < 35 Total SFC” value is 563 SFC. Under setting [1], the “HC > 50 Total Responders” value amounted to 2 and the “HC > 50 Total SFC” value is listed as 943 SFC.

Consider “IKHVPGGGSVQIVYKP (listed as Homo sapiens) [Tau 16-mer, start 297]”, for which the “PD/HC > 50 Ratio of % Responders” value is reported as 1.3, the “PD/HC > 50 Ratio of Response” value was 11.6, the “HC > 50 % of Total Responders” value was 33.3% and the “PD % of Total Responders” value was determined as 44.4%. Besides, the “% of total response” value is listed as 3.4%, the “Average SFC per responder” value is 1319 SFC, the Frequency of response was found to be 17.0 and the “Total SFC per epitope” value is reported as 11875 SFC. For the setting “HC > 50, dominant epitopes”, the “HC > 50 Total SFC” value worked out at 737 SFC. Further, the “PD Total SFC” value (dominant epitopes) is on record as 8565 SFC.

“KIGSLDNITHVPGGGN (listed as Homo sapiens) [Tau 16-mer, start 353]”: the “PD/HC > 50 Ratio of % Responders” value is listed as “inf”, the “PD/HC > 50 Ratio of Response” value was “inf”, the “HC > 50 % of Total Responders” value was found to be 0.0% and the “PD % of Total Responders” value is 100.0%. The “% of total response” value was determined as 1.2%, the “Average SFC per responder” value was 4070 SFC, the Frequency of response is 1.9 and the “Total SFC per epitope” value was 4070 SFC. For the same sequence, under “HC > 50, dominant epitopes”, the “HC > 50 Total SFC” value was 0 SFC. Further, the “PD Total SFC” value (dominant epitopes) was 4070 SFC.
